Experiment [1] concerns the target hA2BAR (Homo sapiens (Human), UniProt P29275). The experiment is described as follows: Effect on NECA-induced cyclic AMP accumulation at A2B receptor. Also: NECA (150 nM)-induced cyclic AMP accumulation. The format is cell-based. To be noted: read-out: hA2BAR % inhib. at 10 μM.
Experiment [2] concerns the target human A3AR (Homo sapiens (Human), UniProt P0DMS8). The experiment is described as follows: Competitive binding assay to the human A3AR ([125I]I-AB-MECA). The procedure: CHO (Chinese hamster ovary) cells expressing the recombinant human ARs (HEK-293 cells were used for the human A2AAR) were cultured in DMEM and F12 (1:1) supplemented with 10% fetal bovine serum, 100 units/ml penicillin, […] streptomycin and 2 μmol/ml glutamine. Cells were harvested by trypsinization. After homogenization and suspension, cells were centrifuged at 500 g for 10 min, and the pellet was re-suspended in 50 mM Tris.HCl buffer (pH 7.4) containing 10 mM MgCl2. The suspension was homogenized with an electric homogenizer for 10 sec, and was then re-centrifuged at 20,000 g for 20 min at 4° C. The resultant pellets were resuspended in buffer in the presence of 3 Units/mL adenosine deaminase, and the suspension was stored at −80° C. until the binding experiments. The protein concentration was measured using the Bradford assay.
Each tube in the competitive binding assay contained 100 μl membrane suspension (20 μg protein), 50 μl [^125I]-AB-MECA (0.5 nM), and 50 μl of increasing concentrations of the test ligands in Tris.HCl buffer (50 mM, pH 8.0) containing 10 mM MgCl2, 1 mM EDTA. Nonspecific binding was determined using 10 μM of 5′-N-ethylcarboxamidoadenosine in the buffer. The mixtures were incubated at 25° C. for 60 min. Binding reactions were terminated by filtration through Whatman GF/B filters under reduced pressure using a MT-24 cell harvester (Brandell, Gaithersburgh, Md., USA). Filters were washed three times with 9 mL ice-cold buffer. Radioactivity was determined in a Beckman 5500B γ-counter.

Entries after “also recorded” stand apart in the source; their conditions may differ.

Sequence of human A3AR (P0DMS8 whole entry): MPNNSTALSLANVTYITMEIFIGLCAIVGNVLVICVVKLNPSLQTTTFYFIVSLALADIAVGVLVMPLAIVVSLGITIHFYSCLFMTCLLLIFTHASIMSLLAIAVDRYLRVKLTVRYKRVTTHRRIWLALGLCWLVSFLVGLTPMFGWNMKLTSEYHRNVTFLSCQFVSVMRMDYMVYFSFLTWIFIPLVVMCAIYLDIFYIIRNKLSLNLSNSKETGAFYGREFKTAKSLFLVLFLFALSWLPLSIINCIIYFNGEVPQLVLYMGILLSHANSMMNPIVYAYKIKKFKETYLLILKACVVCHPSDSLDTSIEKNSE
Sequence of hA2BAR (P29275 whole entry): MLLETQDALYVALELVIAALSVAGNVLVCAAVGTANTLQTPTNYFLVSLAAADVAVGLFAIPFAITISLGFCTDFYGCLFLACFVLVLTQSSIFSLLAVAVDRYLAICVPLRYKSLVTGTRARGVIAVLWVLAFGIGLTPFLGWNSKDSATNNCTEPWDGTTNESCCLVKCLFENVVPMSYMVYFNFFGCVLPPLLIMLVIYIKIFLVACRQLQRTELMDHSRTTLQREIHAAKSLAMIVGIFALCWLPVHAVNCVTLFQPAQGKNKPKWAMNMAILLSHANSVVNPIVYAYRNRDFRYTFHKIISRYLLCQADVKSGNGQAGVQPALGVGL

Take `Clc1ccc(Nc2nc3ccccc3c3[nH]c(C4CCCCC4)nc23)cc1Cl` [Compound 45, N-(3,4-Dichloro-phenyl)-2-cyclohexyl-1H-imidazo[4,5-c]quinolin-4-amine]: the inhibition at 10 µM is -5.6% in experiment [1] and 45% in experiment [2] (1 h, 10 μM, [125I]I-AB-MECA (0.5 nM), CHO cells, Table 2, read-out: hA3AR % displ. at 10 μM). In addition, in experiment [2] (10 μM, [125I]I-AB-MECA, CHO cells, Table 3), the “hA3AR % displ. at 10 μM” value worked out at 45%. For the same molecule, the “affinity to orthosteric versus allosteric binding sites (selective affinity)” value in experiment [2] (orthosteric sites of A1, A2A, A2B, A3 receptors vs allosteric site of A3 adenosine receptor) is “selective affinity; also recorded: best separation between orthosteric and allosteric recognition”.

For the origin of these results see patent publication US9326978B2, “A3 adenosine receptor allosteric modulators” (The United States of America, Represented by the Secretary, …, priority 2006, dated 2016).
